The test system of assay [1] is calreticulin. The assay can be described thus: Calreticulin expression on infected L929 cell membrane. The class given is cell-based. To be noted: L929 infected with MHV-A59 (FIG. 3). How it is done:
To determine if the P2Et extract of the invention can inhibit virus infection L929 cells were seeded in 12-well plates at a concentration of […] for well and cultured overnight. Cells were pretreated for 2 h with the P2Et or controls, washed twice with PBS 1× and inoculated with 200 μl of the virus suspension to 0.1, 0.01 or 0.001 MOI in DMEM, 1 h at room temperature in mechanical agitation. The virus inoculum was removed, the cells were treated again with extracts for 6, 12 and 24 h. Supernatants were collected for qPCR and plaque assays. The cells were collected for evaluation of proteins by western blot and ROS assays by flow cytometry.
Previously, we have shown that standardized P2Et extract induces immunogenic cell death (ICD), here the expression of calreticulin, a marker of ICD, was evaluated on the L929 cell membrane infected cells.

The subject of assay [2] is SARS-CoV-2 virus. Particulars: cited from earlier work.

With `CCN(CC)CCCC(C)Nc1ccnc2cc(Cl)ccc12` (stereo not shown) [chloroquine], the “expression of calreticulin induced by viral infection on L929 cell surface” value (shortened to “expression of calreticulin induced”) in assay [1] is “decreased”. “epigallocatechin-zinc gallate [EGCG-Zn^+2]”: the “suppression of viral activity” value in assay [2] was “greater than 99%”. In the case of `O=c1c(O)c(-c2ccc(O)c(O)c2)oc2cc(O)cc(O)c12` [quercetin], the “expression of calreticulin induced” value in assay [1] was “decreased”. Consider `CC(=O)N[C@@H](CS)C(=O)O` [NAC, N-Acetylcysteine], for which, in assay [1], the “expression of calreticulin induced” value was “decreased”.
